Reference: PubChem BioAssay AID1259407 (Chemical Carcinogenesis Research Information System (CCRIS), 2018)
The source made the active and inactive calls. The rule behind the calls is not given here.

Tested on: CCRIS mutagenicity, Ames/micronucleus/aberration tests
Assay: CCRIS mutagenicity studies
[1] = Test System: AMES SALMONELLA TYPHIMURIUM, Strain/Indicator: TA98, Metabolic Activation: NONE, Method: STANDARD PLATE
[2] = Test System: AMES SALMONELLA TYPHIMURIUM, Strain/Indicator: TA98, Metabolic Activation: RAT, LIVER, S-9, AROCLOR 1254, Method: STANDARD PLATE
[3] = Test System: AMES SALMONELLA TYPHIMURIUM, Strain/Indicator: TA100, Metabolic Activation: NONE, Method: STANDARD PLATE
[4] = Test System: AMES SALMONELLA TYPHIMURIUM, Strain/Indicator: TA100, Metabolic Activation: RAT, LIVER, S-9, AROCLOR 1254, Method: STANDARD PLATE
[5] = Test System: AMES SALMONELLA TYPHIMURIUM, Strain/Indicator: TA1535, Metabolic Activation: NONE, Method: STANDARD PLATE
[6] = Test System: AMES SALMONELLA TYPHIMURIUM, Strain/Indicator: TA1535, Metabolic Activation: RAT, LIVER, S-9, AROCLOR 1254, Method: STANDARD PLATE
[7] = Test System: AMES SALMONELLA TYPHIMURIUM, Strain/Indicator: TA1537, Metabolic Activation: NONE, Method: STANDARD PLATE
[8] = Test System: AMES SALMONELLA TYPHIMURIUM, Strain/Indicator: TA1537, Metabolic Activation: RAT, LIVER, S-9, AROCLOR 1254, Method: STANDARD PLATE

SMILES: O=[N+]([O-])c1cccc(OS(=O)(=O)c2cccc3cccnc23)c1
- mutagenic call [1]: inactive; negative
- mutagenic call [2]: active; positive
- mutagenic call [3]: inactive; negative
- mutagenic call [4]: active; positive
- mutagenic call [5]: inactive; negative
- mutagenic call [6]: inactive; negative
- mutagenic call [7]: inactive; negative
- mutagenic call [8]: inactive; negative

SMILES: C
- mutagenic call (End Point: In vitro chromosomal aberrations, Test System: Chinese hamster V79 lung fibroblast cells, Metabolic Activation: Rat, Liver, S9, Aroclor 1254): inactive; negative. material tested was baytubes, multi-walled carbon-nanotubes.
- mutagenic call (Test System: Ames Salmonella typhimurium, Strain/Indicator: TA98, Metabolic Activation: None, Method: Preincubation): inactive; negative. material tested was baytubes, multi-walled carbon-nanotubes.
- mutagenic call (Test System: Ames Salmonella typhimurium, Strain/Indicator: TA98, Metabolic Activation: Rat, Liver, S9, Aroclor 1254, Method: Preincubation): inactive; negative. material tested was baytubes, multi-walled carbon-nanotubes.
- mutagenic call (Test System: Ames Salmonella typhimurium, Strain/Indicator: TA100, Metabolic Activation: None, Method: Preincubation): inactive; negative. material tested was baytubes, multi-walled carbon-nanotubes.
- mutagenic call (Test System: Ames Salmonella typhimurium, Strain/Indicator: TA100, Metabolic Activation: Rat, Liver, S9, Aroclor 1254, Method: Preincubation): inactive; negative. material tested was baytubes, multi-walled carbon-nanotubes.
- mutagenic call (Test System: Ames Salmonella typhimurium, Strain/Indicator: TA102, Metabolic Activation: None, Method: Preincubation): inactive; negative. material tested was baytubes, multi-walled carbon-nanotubes.
- mutagenic call (Test System: Ames Salmonella typhimurium, Strain/Indicator: TA102, Metabolic Activation: Rat, Liver, S9, Aroclor 1254, Method: Preincubation): inactive; negative. material tested was baytubes, multi-walled carbon-nanotubes.
- mutagenic call (Test System: Ames Salmonella typhimurium, Strain/Indicator: TA1535, Metabolic Activation: None, Method: Preincubation): inactive; negative. material tested was baytubes, multi-walled carbon-nanotubes.
- mutagenic call (Test System: Ames Salmonella typhimurium, Strain/Indicator: TA1535, Metabolic Activation: Rat, Liver, S9, Aroclor 1254, Method: Preincubation): inactive; negative. material tested was baytubes, multi-walled carbon-nanotubes.
- mutagenic call (Test System: Ames Salmonella typhimurium, Strain/Indicator: TA1537, Metabolic Activation: None, Method: Preincubation): inactive; negative. material tested was baytubes, multi-walled carbon-nanotubes.
- mutagenic call (Test System: Ames Salmonella typhimurium, Strain/Indicator: TA1537, Metabolic Activation: Rat, Liver, S9, Aroclor 1254, Method: Preincubation): inactive; negative. material tested was baytubes, multi-walled carbon-nanotubes.

SMILES: O=C(O)c1ccc(ON2P(Oc3ccc(C(=O)O)cc3)N=P(Oc3ccc(C(=O)O)cc3)(Oc3ccc(C(=O)O)cc3)N(Oc3ccc(C(=O)O)cc3)P2Oc2ccc(C(=O)O)cc2)cc1 (configuration not stated)
- mutagenic call [1]: inactive; negative
- mutagenic call [2]: inactive; negative
- mutagenic call [3]: inactive; negative
- mutagenic call [4]: inactive; negative

SMILES: C[C@@H]1Cc2ccc(C(=O)N[C@@H](Cc3ccccc3)C(=O)O)c(O)c2C(=O)O1
- mutagenic call (End Point: IN VIVO CHROMOSOMAL ABERRATIONS, Test System: SPLENOCYTES, Species: RAT, Strain/Sex: FISCHER 344/MALE, Route: ORAL (GAVAGE)): inactive; negative
- mutagenic call (Test System: AMES SALMONELLA TYPHIMURIUM, Strain/Indicator: TA102, Metabolic Activation: NONE, Method: STANDARD PLATE): inactive; negative
- mutagenic call (Test System: AMES SALMONELLA TYPHIMURIUM, Strain/Indicator: TA102, Metabolic Activation: RAT, LIVER, S-9, AROCLOR 1254, Method: STANDARD PLATE): inactive; negative

SMILES: Oc1ccc2c(c1)[nH]c1ccccc12
- mutagenic call (Test System: CHINESE HAMSTER OVARY, Strain/Indicator: CHO-K1-BH4 (HGPRT)/6-THIOGUANINE, Metabolic Activation: RAT, LIVER, S-9, AROCLOR (4%)): active; positive

SMILES: CC[C@H](C)[C@H]1O[C@]2(C=C[C@@H]1C)C[C@@H]1C[C@@H](C/C=C(\C)[C@@H](O[C@H]3C[C@H](OC)[C@@H](O[C@H]4C[C@H](OC)[C@@H](NC)[C@H](C)O4)[C@H](C)O3)[C@@H](C)/C=C/C=C3\CO[C@@H]4[C@H](O)C(C)=C[C@@H](C(=O)O1)[C@]34O)O2
- mutagenic call (End Point: Ames Salmonella typhimurium, Test System: TA97a, Metabolic Activation: None): inactive; negative
- mutagenic call (End Point: Ames Salmonella typhimurium, Test System: TA97a, Metabolic Activation: S-9): inactive; negative
- mutagenic call (End Point: Ames Salmonella typhimurium, Test System: TA98, Metabolic Activation: None): inactive; negative
- mutagenic call (End Point: Ames Salmonella typhimurium, Test System: TA98, Metabolic Activation: S-9): inactive; negative
- mutagenic call (End Point: Ames Salmonella typhimurium, Test System: TA100, Metabolic Activation: None): inactive; negative
- mutagenic call (End Point: Ames Salmonella typhimurium, Test System: TA100, Metabolic Activation: S-9): inactive; negative
- mutagenic call (End Point: Ames Salmonella typhimurium, Test System: TA1535, Metabolic Activation: None): inactive; negative
- mutagenic call (End Point: Ames Salmonella typhimurium, Test System: TA1535, Metabolic Activation: S-9): inactive; negative
- mutagenic call (End Point: E. coli, Test System: WP2, Metabolic Activation: None): inactive; negative
- mutagenic call (End Point: E. coli, Test System: WP2, Metabolic Activation: S-9): inactive; negative
- mutagenic call (End Point: E. coli, Test System: WP2uvrA pKM101, Metabolic Activation: None): inactive; negative
- mutagenic call (End Point: E. coli, Test System: WP2uvrA pKM101, Metabolic Activation: S-9): inactive; negative
- mutagenic call (End Point: E. coli, Test System: WP2uvrA, Metabolic Activation: None): inactive; negative
- mutagenic call (End Point: E. coli, Test System: WP2uvrA, Metabolic Activation: S-9): inactive; negative
- mutagenic call (End Point: Gene mutation, Test System: Chinese hamster V79 lung fibroblasts, Metabolic Activation: None): inactive; negative
- mutagenic call (End Point: Gene mutation, Test System: Chinese hamster V79 lung fibroblasts, Metabolic Activation: S-9): inactive; negative
- mutagenic call (End Point: In vitro chromosomal aberrations, Test System: Chinese hamster ovary (CHO-WBL) cells, Metabolic Activation: None): inactive; negative
- mutagenic call (End Point: In vitro chromosomal aberrations, Test System: Chinese hamster ovary (CHO-WBL) cells, Metabolic Activation: S-9): inactive; negative
- mutagenic call (End Point: In vivo chromosomal aberrations, Test System: Bone marrow cells, Species: Mouse, Route: Oral): inactive; negative

SMILES: CCCCOCCOCCOCc1cc2c(cc1CCC)OCO2
- mutagenic call (End Point: IN VITRO CHROMOSOMAL ABERRATIONS, Test System: CHINESE HAMSTER OVARY CELLS, Metabolic Activation: NONE): inactive; negative; precipitation occurred at 287 ug/ml
- mutagenic call (End Point: IN VITRO CHROMOSOMAL ABERRATIONS, Test System: CHINESE HAMSTER OVARY CELLS, Metabolic Activation: RAT, LIVER, S-9, AROCLOR 1254): inactive; negative; precipitation occurred at 496 ug/ml
- mutagenic call (Test System: AMES SALMONELLA TYPHIMURIUM, Strain/Indicator: TA97, Metabolic Activation: NONE, Method: PREINCUBATION): inactive; negative
- mutagenic call (Test System: AMES SALMONELLA TYPHIMURIUM, Strain/Indicator: TA97, Metabolic Activation: RAT, LIVER, S-9, AROCLOR 1254, Method: PREINCUBATION): inactive; negative
- mutagenic call [1]: inactive; negative
- mutagenic call [2]: inactive; negative
- mutagenic call [3]: inactive; negative
- mutagenic call [4]: inactive; negative
- mutagenic call (Test System: AMES SALMONELLA TYPHIMURIUM, Strain/Indicator: TA102, Metabolic Activation: NONE, Method: PREINCUBATION): inactive; negative
- mutagenic call (Test System: AMES SALMONELLA TYPHIMURIUM, Strain/Indicator: TA102, Metabolic Activation: RAT, LIVER, S-9, AROCLOR 1254, Method: PREINCUBATION): inactive; negative
- mutagenic call [5]: inactive; negative
- mutagenic call [6]: inactive; negative
- mutagenic call [7]: inactive; negative
- mutagenic call [8]: inactive; negative
- mutagenic call (Test System: AMES SALMONELLA TYPHIMURIUM, Strain/Indicator: TA1538, Metabolic Activation: NONE, Method: STANDARD PLATE): inactive; negative
- mutagenic call (Test System: AMES SALMONELLA TYPHIMURIUM, Strain/Indicator: TA1538, Metabolic Activation: RAT, LIVER, S-9, AROCLOR 1254, Method: STANDARD PLATE): inactive; negative
- mutagenic call (Test System: CHINESE HAMSTER OVARY, Strain/Indicator: CHO-K1-BH4 (HGPRT)/6-THIOGUANINE, Metabolic Activation: NONE): inactive; negative
- mutagenic call (Test System: CHINESE HAMSTER OVARY, Strain/Indicator: CHO-K1-BH4 (HGPRT)/6-THIOGUANINE, Metabolic Activation: RAT, LIVER, S-9, AROCLOR 1254): inactive; negative
- mutagenic call (Test System: UDS HUMAN HEPATOCYTES, Strain/Indicator: THY INCORP, Metabolic Activation: NONE, Method: AUTORADIOGRAPHY): inactive; negative
- mutagenic call (Test System: UDS RAT HEPATOCYTES, Strain/Indicator: THY INCORP, Metabolic Activation: NONE, Method: AUTORADIOGRAPHY): inactive; negative

SMILES: Cc1ccc2c(c1)c(=NC(=O)c1cccc([N+](=O)[O-])c1)sn2C(=O)c1cccc([N+](=O)[O-])c1
- mutagenic call (Test System: AMES SALMONELLA TYPHIMURIUM, Strain/Indicator: TA100, Metabolic Activation: S-9, Method: STANDARD PLATE): active; positive
